Results reported in US20260116868A1 (Arcus Biosciences, Inc., priority 2023, published 2026).

biological target: T1, Cbl-b (Homo sapiens, UniProt Q13191); experiment: Cbl-b probe displacement HTRF binding assay; conditions: 0.4 nM Cbl-b, 150 nM BODIPY probe
T1 construct: biotin (biotinylated protein)
Protocol: The affinity with which compounds of the present disclosure bind to Cbl-b was assessed using probe displacement homologous time resolved fluorescence (HTRF) assays. The assays used a BODIPY™ conjugated probe (Example 54 from WO 2020264398) and biotinylated Cbl-b. The assays were performed in assay buffer consisting of 20 mM Hepes, 150 mM NaCl, 0.01% Triton X-100, 0.5 mM TCEP, 0.01% BSA. On the day of the assay, a 20 point, 1:2 master serial dilution of each compound was prepared in DMSO to span a final concentration range of […] to 0 nM. Two hundred nanoliters of diluted compound was added to each well of a 384-well plate. Fifteen microliters of biotinylated- Cbl-b resuspended in assay buffer were added to each well and the plate incubated for 60 minutes at room temperature prior to addition of 5 μL of BODIPY™ probe in assay buffer. Final assay conditions included 0.4 nM of Cbl-b and 150 nM of BODIPY™ probe. After a further 15 minutes of incubation at room temperature, 5 μl of Streptavidin-Terbium cryptate reagent at 5-fold final concentration was added to each well of the 384-well plate. Binding of a probe to Cbl-b results in an increase of HTRF signal. HTRF signal was measured by Envision plate reader, while competition of a compound of the present disclosure with probe results in a decrease of signal. Percentage maximum activity in each test well was calculated based on DMSO (maximum activity, 0% displacement) and no protein control wells (baseline activity, 100% displacement). Binding affinity was determined from a dose response curve fitted using a standard four parameter fit equation. See Table 7 for data for compounds (Cbl-b Binding (IC50)).

T1 sequence (Q13191 whole entry, species assumed): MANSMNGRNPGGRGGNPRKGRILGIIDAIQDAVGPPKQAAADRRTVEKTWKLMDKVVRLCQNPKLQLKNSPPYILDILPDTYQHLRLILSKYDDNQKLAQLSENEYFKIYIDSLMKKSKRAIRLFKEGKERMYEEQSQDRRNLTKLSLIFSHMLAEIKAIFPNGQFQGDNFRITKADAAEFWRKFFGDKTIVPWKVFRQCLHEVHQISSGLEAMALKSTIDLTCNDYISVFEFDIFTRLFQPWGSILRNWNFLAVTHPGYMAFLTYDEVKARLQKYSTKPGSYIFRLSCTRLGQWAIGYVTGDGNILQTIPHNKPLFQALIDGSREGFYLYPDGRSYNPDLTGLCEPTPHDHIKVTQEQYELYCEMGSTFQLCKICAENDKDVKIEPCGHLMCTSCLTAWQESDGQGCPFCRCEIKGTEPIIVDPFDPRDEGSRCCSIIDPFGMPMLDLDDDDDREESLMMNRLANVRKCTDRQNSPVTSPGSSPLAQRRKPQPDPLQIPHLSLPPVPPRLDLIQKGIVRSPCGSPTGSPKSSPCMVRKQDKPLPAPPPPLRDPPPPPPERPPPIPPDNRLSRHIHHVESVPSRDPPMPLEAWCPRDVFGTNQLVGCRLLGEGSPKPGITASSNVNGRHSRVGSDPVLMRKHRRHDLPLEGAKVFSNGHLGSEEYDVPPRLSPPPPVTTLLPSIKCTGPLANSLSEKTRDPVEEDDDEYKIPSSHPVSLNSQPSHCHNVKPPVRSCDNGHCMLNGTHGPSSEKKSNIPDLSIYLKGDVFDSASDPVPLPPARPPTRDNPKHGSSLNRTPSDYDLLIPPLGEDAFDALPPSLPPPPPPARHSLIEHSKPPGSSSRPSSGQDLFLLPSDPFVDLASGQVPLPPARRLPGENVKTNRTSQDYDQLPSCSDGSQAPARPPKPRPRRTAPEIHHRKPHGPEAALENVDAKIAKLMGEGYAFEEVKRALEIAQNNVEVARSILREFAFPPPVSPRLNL

IC50 [nM]	Structure (SMILES)
< 100	CC(C)CNCc1cc(C(=O)Nc2cc(-c3ccc(C#N)cc3C(=O)N3CC(F)C3)cc(OC(C)C)n2)c(=O)n(C)c1 [Example 272]
< 100	CC(C)CNCc1cc(C(=O)Nc2cc(-c3ccc(OC(F)F)cc3C(=O)N3CC(F)(F)C3)cc(C3CC3)n2)c(=O)n(C2CC2)c1 [Example 322]
< 100	C[C@H](NCc1cc(C(=O)Nc2cc(-c3ccc(C#N)cc3C(=O)N3CC(F)(F)C3)cc(C3CC3)n2)c(=O)n(C2CC2)c1)C1CC1 [Example 365]
< 100	Cn1cc(CNC[C@@H]2CCCO2)cc(C(=O)Nc2cc(-c3ccc(C#N)cc3C(=O)N3CC(F)(F)C3)cc(OCF)n2)c1=O [Example 350]
< 100	CO[C@@H](C)[C@H](C)NCc1cc(C(=O)Nc2cc(-c3ccc(Cl)cc3C(=O)N3CC(F)(F)C3)cc(C3CC3)n2)c(=O)n(C2CC2)c1 [Example 359]
< 100	N#Cc1ccc(-c2cc(NC(=O)c3cc(CNC[C@@H]4CCCO4)cn(C4CC4)c3=O)nc(OCC(F)F)c2)c(C(=O)N2CC(F)(F)C2)c1 [Example 132, N-(4-{4-cyano-2-[(3,3-difluoro-1-azetidinyl)carbonyl]phenyl}-6-(2,2-difluoroethoxy)-2-pyridyl)-1-cyclopropyl-2-oxo-5-[({[(S)-perhydro-2-furyl]methyl}amino)methyl]-1,2-dihydronicotinamide]
< 100	Cn1cc(CNC[C@@H]2CCCO2)cc(C(=O)Nc2cc(-c3c(F)cc(C#N)cc3C(=O)N3CC(F)(F)C3)cc(C3CC3)n2)c1=O [Example 241]
< 100	C[C@H](NCc1cc(C(=O)Nc2cc(-c3c(F)cc(C#N)cc3C(=O)N3CC(F)(F)C3)cc(C3CC3)n2)c(=O)n(C)c1)C1CC1 [Example 236]
< 100	CO[C@@H](C)CNCc1cc(C(=O)Nc2cc(-c3ccc(Cl)cc3C(=O)N3CC(F)C3)cc(C3CC3)n2)c(=O)n(C2CC2)c1 [Example 248]
< 100	COCCNCc1cc(C(=O)Nc2cc(-c3ccc(Cl)cc3C(=O)N3CC(F)C3)cc(C3CC3)n2)c(=O)n(C2CC2)c1 [Example 285]
< 100	CCOc1cc(-c2c(F)cc(Cl)cc2C(=O)N2CC(F)(F)C2)cc(NC(=O)c2cc(CNC[C@H](C)OC)cn(C3CC3)c2=O)n1 [Example 199]
< 100	O=C(Nc1cc(-c2ccc(Cl)cc2C(=O)N2CC(F)(F)C2)cc(C2CC2)n1)c1cc(CNC[C@@H]2CCCO2)cn(C2CC2)c1=O [Example 378]
< 100	N#Cc1ccc(-c2cc(NC(=O)c3cc(CNC[C@@H]4CCCO4)cn(C4CC4)c3=O)nc(OCF)c2)c(C(=O)N2CC(F)(F)C2)c1 [Example 344]
< 100	CO[C@@H](C)CNCc1cc(C(=O)Nc2cc(-c3ccc(OC(F)F)cc3C(=O)N3CC(F)(F)C3)cc(C3CC3)n2)c(=O)n(C)c1 [Example 176]
< 100	O=C(Nc1cc(-c2ccc(OC(F)F)cc2C(=O)N2CC(F)(F)C2)cc(C2CC2)n1)c1cc(CNC[C@@H]2CCCO2)cn(C2CC2)c1=O [Example 325]
< 100	CC(C)Oc1cc(-c2ccc(C#N)cc2C(=O)N2CC(F)(F)C2)cc(NC(=O)c2cc(CNC[C@@H]3CCCCO3)cn(C)c2=O)n1 [Example 407]
< 100	CCNc1cc(-c2ccc(OC(F)F)cc2C(=O)N2CC(F)(F)C2)cc(NC(=O)c2cc(CNC[C@H](C)OC)cn(C3CC3)c2=O)n1 [Example 330]
< 100	CO[C@@H](C)[C@H](C)NCc1cc(C(=O)Nc2cc(-c3ccc(OC(F)F)cc3C(=O)N3CC(F)(F)C3)cc(OC(C)C)n2)c(=O)n(C2CC2)c1 [Example 205]
< 100	CO[C@@H](C)[C@H](C)NCc1cc(C(=O)Nc2cc(-c3c(F)cc(C#N)cc3C(=O)N3CC(F)(F)C3)cc(C3CC3)n2)c(=O)n(C)c1 [Example 229]
< 100	CO[C@@H](C)CNCc1cc(C(=O)Nc2cc(-c3ccc(OC(F)F)cc3C(=O)N3CC(F)C3)cc(OC(C)C)n2)c(=O)n(C2CC2)c1 [Example 252]
< 100	CO[C@@H](C)CNCc1cc(C(=O)Nc2cc(-c3c(F)cc(C#N)cc3C(=O)N3CC(F)(F)C3)cc(C3CC3)n2)c(=O)n(C)c1 [Example 228]
< 100	COc1ccc(-c2cc(NC(=O)c3cc(CNC[C@@H]4CCCO4)cn(C4CC4)c3=O)nc(OC(C)C)c2)c(C(=O)N2CC(F)(F)C2)c1 [Example 311]

IC50 [nM]	Structure (SMILES)
< 100	CC(C)CNCc1cc(C(=O)Nc2cc(-c3ccc(C#N)cc3C(=O)N3CC(F)(F)C3)cc(OCC(F)F)n2)c(=O)n(C2CC2)c1 [Example 129, N-(4-{4-cyano-2-[(3,3-difluoro-1-azetidinyl)carbonyl]phenyl}-6-(2,2-difluoroethoxy)-2-pyridyl)-1-cyclopropyl-5-[(isobutylamino)methyl]-2-oxo-1,2-dihydronicotinamide]
< 100	CC(C)Nc1cc(-c2ccc(Cl)cc2C(=O)N2CC(F)(F)C2)cc(NC(=O)c2cc(CN[C@@H](C)C3CCC3)cn(C3CC3)c2=O)n1 [Example 221]
< 100	COc1ccc(-c2cc(NC(=O)c3cc(CN[C@@H](C)C4CCC4)cn(C)c3=O)nc(OC(C)C)c2)c(C(=O)N2CC(F)C2)c1 [Example 274]
< 100	N#Cc1ccc(-c2cc(NC(=O)c3cc(CNCCC(F)(F)F)cn(C4CC4)c3=O)nc(C3CC3)c2)c(C(=O)N2CC(F)(F)C2)c1 [Example 391]
< 100	C[C@H](NCc1cc(C(=O)Nc2cc(-c3ccc(C#N)cc3C(=O)N3CC(F)(F)C3)cc(C3CC3)n2)c(=O)n(C2CC2)c1)C1CCC1 [Example 351]
< 100	Cn1cc(CNC[C@@H]2CCCO2)cc(C(=O)Nc2cc(-c3ccc(C#N)cc3C(=O)N3CC(F)(F)C3)cc(C3CC3)n2)c1=O [Example 173]
< 100	CC(C)CNCc1cc(C(=O)Nc2cc(-c3c(F)cc(C#N)cc3C(=O)N3CC(F)(F)C3)cc(OC(C)C)n2)c(=O)n(C)c1 [Example 234]
< 100	COc1ccc(-c2cc(NC(=O)c3cc(CNC[C@H](C)OC)cn(C4CC4)c3=O)nc(OC(C)C)c2)c(C(=O)N2CC(F)(F)C2)c1 [Example 305]
< 100	CO[C@@H](C)CNCc1cc(C(=O)Nc2cc(-c3ccc(Cl)cc3C(=O)N3CC[C@@H]3C)cc(C3CC3)n2)c(=O)n(C2CC2)c1 [Example 314]
< 100	CC(N[C@@H](C)C1CCC1)c1cc(C(=O)Nc2cc(-c3ccc(C#N)cc3C(=O)N3CC(F)(F)C3)cc(C3CC3)n2)c(=O)n(C2CC2)c1 (stereo partly shown) [Example 329]
< 100	CO[C@@H](C)CNCc1cc(C(=O)Nc2cc(-c3c(F)cc(F)cc3C(=O)N3CC(F)(F)C3)cc(OC(C)C)n2)c(=O)n(C2CC2)c1 [Example 368]
< 100	CC1(CNCc2cc(C(=O)Nc3cc(-c4ccc(Cl)cc4C(=O)N4CC(F)(F)C4)cc(C4CC4)n3)c(=O)n(C3CC3)c2)CC1 [Example 408]
< 100	C[C@H](N[C@@H](C)C1CC1)c1cc(C(=O)Nc2cc(-c3ccc(C#N)cc3C(=O)N3CC(F)(F)C3)cc(C3CC3)n2)c(=O)n(C2CC2)c1 [Example 328]
< 100	O=C(Nc1cc(-c2ccc(Cl)cc2C(=O)N2CC(F)(F)C2)cc(C2CC2)n1)c1cc(CNC[C@@H]2CCCCO2)cn(C2CC2)c1=O [Example 398]
< 100	CC(C)CNC(C)c1cc(C(=O)Nc2cc(-c3ccc(C#N)cc3C(=O)N3CC(F)(F)C3)cc(C3CC3)n2)c(=O)n(C2CC2)c1 (stereo not shown) [Example 326]
< 100	CC(C)Oc1cc(-c2ccc(Cl)cc2C(=O)N2CC(F)C2)cc(NC(=O)c2cc(CN[C@@H](C)C3CC3)cn(C3CC3)c2=O)n1 [Example 264]
< 100	CC(C)CNCc1cc(C(=O)Nc2cc(-c3c(F)cc(Cl)cc3C(=O)N3CC(F)(F)C3)cc(NC(C)C)n2)c(=O)n(C2CC2)c1 [Example 201]
< 100	CCOc1cc(-c2ccc(OC(F)F)cc2C(=O)N2CC(F)C2)cc(NC(=O)c2cc(CNC[C@@H]3CCCO3)cn(C3CC3)c2=O)n1 [Example 266]
< 100	CCOc1cc(-c2c(F)cc(C#N)cc2C(=O)N2CC(F)(F)C2)cc(NC(=O)c2cc(CNC[C@@H]3CCCO3)cn(C)c2=O)n1 [Example 118, N-[4-[4-cyano-2-(3,3-difluoroazetidine-1-carbonyl)-6-fluorophenyl]-6-ethoxypyridin-2-yl]-1-methyl-2-oxo-5-[[[(2S)-oxolan-2-yl]methylamino]methyl]pyridine-3-carboxamide]
< 100	CC(C)CNCc1cc(C(=O)Nc2cc(-c3ccc(Cl)cc3C(=O)N3CC(F)(F)C3)cc(C3CC3)n2)c(=O)n(C2CC2)c1 [Example 134, N-(4-{4-chloro-2-[(3,3-difluoro-1-azetidinyl)carbonyl]phenyl}-6-cyclopropyl-2-pyridyl)-1-cyclopropyl-5-[(isobutylamino)methyl]-2-oxo-1,2-dihydronicotinamide]
< 100	CO[C@@H](C)CNCc1cc(C(=O)Nc2cc(-c3ccc(OC(F)F)cc3C(=O)N3CC(F)C3)cc(OC(C)C)n2)c(=O)n(C)c1 [Example 263]
